# Experimental data as given in US8710065B2, “Tricyclic inhibitors of kinases” (AbbVie Inc., priority 2011, dated 2014).
# Biological target: T1, GST-tagged-Wee1 kinase (Homo sapiens, UniProt P30291)
# T1 construct: purchased Carnabio (Carna Biosciences) 05-177
# Experiment: Wee1 time-resolved fluorescence equilibrium binding assay (displacement of Oregon Green-labeled ATP-competitive kinase probe)
# Conditions: not given
# Outline: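 Ki values derive from competitive displacement, under equilibrium, of a fast-reversible ATP-site Oregon Green kinase probe from GST-tagged Wee1, detected by time-resolved fluorescence.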
# T1 sequence (P30291 whole entry): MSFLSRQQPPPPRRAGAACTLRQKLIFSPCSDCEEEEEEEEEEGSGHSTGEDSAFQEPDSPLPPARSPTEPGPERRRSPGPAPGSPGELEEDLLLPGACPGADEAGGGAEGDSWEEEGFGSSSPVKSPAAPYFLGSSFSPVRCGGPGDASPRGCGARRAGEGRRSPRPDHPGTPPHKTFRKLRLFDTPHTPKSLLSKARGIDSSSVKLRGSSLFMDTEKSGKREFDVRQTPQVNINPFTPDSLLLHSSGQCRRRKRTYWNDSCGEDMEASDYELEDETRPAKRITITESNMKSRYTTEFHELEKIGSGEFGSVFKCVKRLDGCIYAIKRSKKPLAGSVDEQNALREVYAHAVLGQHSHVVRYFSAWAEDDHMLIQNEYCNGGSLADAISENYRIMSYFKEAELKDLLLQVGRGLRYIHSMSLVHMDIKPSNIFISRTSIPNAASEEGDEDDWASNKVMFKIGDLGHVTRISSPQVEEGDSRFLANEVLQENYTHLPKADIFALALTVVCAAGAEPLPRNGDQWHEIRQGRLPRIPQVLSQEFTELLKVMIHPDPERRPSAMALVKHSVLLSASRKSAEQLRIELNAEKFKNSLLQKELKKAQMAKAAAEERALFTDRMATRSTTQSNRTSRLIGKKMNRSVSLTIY
row,SMILES,Kd [nM]
1,"O=C(NCCOCCOCCN1CCN(c2ccc(-c3cc4c(-c5cnc(C6(O)CCC6)s5)c(Cl)cnc4[nH]3)cc2)CC1)c1ccc2c(c1)C(=O)OC21c2cc(F)c(O)cc2Oc2cc(O)c(F)cc21 [fluorescent probe, N-(2-(2-(2-(4-(4-(5-chloro-4-(2-(1-hydroxycyclobutyl)thiazol-5-yl)-1H-pyrrolo[2,3-b]pyridin-2-yl)phenyl)piperazin-1-yl)ethoxy)ethoxy)ethyl)-2′,7′-difluoro-3′,6′-dihydroxy-3-oxo-3H-spiro[isobenzofuran-1,9′-xanthene]-5-carboxamide, reference compound]",137

# Same assay, conditions: read-out: Wee-1 inhibition (Ki)
row,SMILES,Ki [nM]
1,"CN1Cc2cc(Nc3ncc4c(=S)n(-c5ccccc5Cl)c5nccn5c4n3)ccc2C(C)(C)C1 [Example 334, 6-(2-chlorophenyl)-2-[(2,4,4-trimethyl-1,2,3,4-tetrahydroisoquinolin-7-yl)amino]imidazo[1,2-a]pyrimido[5,4-e]pyrimidine-5(6H)-thione]",< 10
2,"CN1CCN(c2ccc(Nc3ncc4c(=O)n(-c5cccc(F)c5)c5nccn5c4n3)cc2)CC1 [Example 336, 6-(3-fluorophenyl)-2-{[4-(4-methylpiperazin-1-yl)phenyl]amino}imidazo[1,2-a]pyrimido[5,4-e]pyrimidin-5(6H)-one]",10 to 100
3,"CN1CCN(c2ccc(Nc3ncc4c(=O)n(-c5cccc(Cl)c5)c5nccn5c4n3)cc2)CC1 [Example 337, 6-(3-chlorophenyl)-2-{[4-(4-methylpiperazin-1-yl)phenyl]amino}imidazo[1,2-a]pyrimido[5,4-e]pyrimidin-5(6H)-one]",> 100
4,"CCN1CCN(c2ccc(Nc3ncc4c(=O)n(-c5ccccc5Cl)c5nccn5c4n3)nc2)CC1 [Example 339, 6-(2-chlorophenyl)-2-{[5-(4-ethylpiperazin-1-yl)pyridin-2-yl]amino}imidazo[1,2-a]pyrimido[5,4-e]pyrimidin-5(6H)-one]",> 100
5,"CN1CCN(c2ccc(Nc3ncc4c(=O)n(-c5ccccc5OC(F)(F)F)c5nccn5c4n3)cc2)CC1 [Example 341, 2-{[4-(4-methylpiperazin-1-yl)phenyl]amino}-6-[2-(trifluoromethoxy)phenyl]imidazo[1,2-a]pyrimido[5,4-e]pyrimidin-5(6H)-one]",> 100
6,"O=C(O)c1ccc(Nc2ncc3c(=O)n(-c4ccccc4Cl)c4nccn4c3n2)cc1 [Example 342, 4-{[6-(2-chlorophenyl)-5-oxo-5,6-dihydroimidazo[1,2-a]pyrimido[5,4-e]pyrimidin-2-yl]amino}benzoic acid]",> 100
7,"O=c1c2cnc(Nc3ccc(Br)cc3)nc2n2ccnc2n1-c1ccccc1Cl [Example 343, 2-[(4-bromophenyl)amino]-6-(2-chlorophenyl)imidazo[1,2-a]pyrimido[5,4-e]pyrimidin-5(6H)-one]",10 to 100
8,"COc1cccc(-n2c(=O)c3cnc(Nc4ccccc4)nc3n3ccnc23)c1C [Example 344, 6-(3-methoxy-2-methylphenyl)-2-(phenylamino)imidazo[1,2-a]pyrimido[5,4-e]pyrimidin-5(6H)-one]",> 100
9,"CC(C)n1c(=O)c2cnc(Nc3ccc(N4CCN(C)CC4)cc3)nc2n2ccnc12 [Example 346, 2-{[4-(4-methylpiperazin-1-yl)phenyl]amino}-6-(propan-2-yl)imidazo[1,2-a]pyrimido[5,4-e]pyrimidin-5(6H)-one]",10 to 100
10,"O=c1c2cnc(Nc3ccc(-c4cscn4)cc3)nc2n2ccnc2n1-c1ccccc1Cl [Example 349, 6-(2-chlorophenyl)-2-{[4-(1,3-thiazol-4-yl)phenyl]amino}imidazo[1,2-a]pyrimido[5,4-e]pyrimidin-5(6H)-one]",10 to 100
11,"O=c1c2cnc(Nc3ccc(-c4nccs4)cc3)nc2n2ccnc2n1-c1ccccc1Cl [Example 350, 6-(2-chlorophenyl)-2-{[4-(1,3-thiazol-2-yl)phenyl]amino}imidazo[1,2-a]pyrimido[5,4-e]pyrimidin-5(6H)-one]",10 to 100
12,"O=c1c2cnc(Nc3ccc(-c4ccc5cccnc5n4)cc3)nc2n2ccnc2n1-c1ccccc1Cl [Example 351, 6-(2-chlorophenyl)-2-{[4-(1,8-naphthyridin-2-yl)phenyl]amino}imidazo[1,2-a]pyrimido[5,4-e]pyrimidin-5(6H)-one]",10 to 100
13,"O=c1c2cnc(Nc3cc(Cl)c(N4CCNCC4)c(C(F)(F)F)c3)nc2n2ccnc2n1-c1ccccc1Cl [Example 354, 6-(2-chlorophenyl)-2-{[3-chloro-4-(piperazin-1-yl)-5-(trifluoromethyl)phenyl]amino}imidazo[1,2-a]pyrimido[5,4-e]pyrimidin-5(6H)-one]",> 100
14,"CCCOc1ccc(CN2Cc3cc(Nc4ncc5c(=O)n(-c6ccccc6Cl)c6nccn6c5n4)ccc3C(C)(C)C2)cc1 [Example 357, 6-(2-chlorophenyl)-2-{[4,4-dimethyl-2-(4-propoxybenzyl)-1,2,3,4-tetrahydroisoquinolin-7-yl]amino}imidazo[1,2-a]pyrimido[5,4-e]pyrimidin-5(6H)-one]",10 to 100
15,"CC1(C)CN(Cc2cc(F)cc(C(F)(F)F)c2)Cc2cc(Nc3ncc4c(=O)n(-c5ccccc5Cl)c5nccn5c4n3)ccc21 [Example 358, 6-(2-chlorophenyl)-2-({2-[3-fluoro-5-(trifluoromethyl)benzyl]-4,4-dimethyl-1,2,3,4-tetrahydroisoquinolin-7-yl}amino)imidazo[1,2-a]pyrimido[5,4-e]pyrimidin-5(6H)-one]",10 to 100
16,"C[C@@H]1CCCN1CCc1ccc(Nc2ncc3c(=O)n(-c4ccccc4Cl)c4nccn4c3n2)cc1 [Example 359, 6-(2-chlorophenyl)-2-[(4-{2-[(2R)-2-methylpyrrolidin-1-yl]ethyl}phenyl)amino]imidazo[1,2-a]pyrimido[5,4-e]pyrimidin-5(6H)-one]",10 to 100
17,"O=c1c2cnc(Nc3ccc(-c4csc(N5CCOCC5)n4)cc3)nc2n2ccnc2n1-c1ccccc1Cl [Example 360, 6-(2-chlorophenyl)-2-({4-[2-(morpholin-4-yl)-1,3-thiazol-4-yl]phenyl}amino)imidazo[1,2-a]pyrimido[5,4-e]pyrimidin-5(6H)-one]",10 to 100
18,"Cc1ccc2nc(CCc3ccc(Nc4ncc5c(=O)n(-c6ccccc6Cl)c6nccn6c5n4)cc3)ccc2c1 [Example 361, 6-(2-chlorophenyl)-2-({4-[2-(6-methylquinolin-2-yl)ethyl]phenyl}amino)imidazo[1,2-a]pyrimido[5,4-e]pyrimidin-5(6H)-one]",10 to 100

# Other lines, results leading:
row,Ki [nM],SMILES
1,< 10,"CN1Cc2cc(Nc3ncc4c(=N)n(-c5ccccc5Cl)c5nccn5c4n3)ccc2C(C)(C)C1 [Example 335, 6-(2-chlorophenyl)-5-imino-N-(2,4,4-trimethyl-1,2,3,4-tetrahydroisoquinolin-7-yl)-5,6-dihydroimidazo[1,2-a]pyrimido[5,4-e]pyrimidin-2-amine]"
2,> 100,"COc1ccc(-n2c(=O)c3cnc(Nc4ccc(N5CCN(C)CC5)cc4)nc3n3ccnc23)c(OC)c1 [Example 338, 6-(2,4-dimethoxyphenyl)-2-{[4-(4-methylpiperazin-1-yl)phenyl]amino}imidazo[1,2-a]pyrimido[5,4-e]pyrimidin-5(6H)-one]"
3,> 100,"CN1CCN(c2ccc(Nc3ncc4c(=O)n(-c5ccc(C(F)(F)F)cc5Cl)c5nccn5c4n3)cc2)CC1 [Example 340, 6-[2-chloro-4-(trifluoromethyl)phenyl]-2-{[4-(4-methylpiperazin-1-yl)phenyl]amino}imidazo[1,2-a]pyrimido[5,4-e]pyrimidin-5(6H)-one]"
4,10 to 100,"Cc1cc(Nc2ncc3c(=O)n(-c4c(Cl)cccc4Cl)c4nccn4c3n2)ccc1N1CCCNCC1 [Example 345, 2-{[4-(1,4-diazepan-1-yl)-3-methylphenyl]amino}-6-(2,6-dichlorophenyl)imidazo[1,2-a]pyrimido[5,4-e]pyrimidin-5(6H)-one]"
5,> 100,"CN1CCN(c2c(F)cc(Nc3ncc4c(=O)n(-c5ccccc5Cl)c5nccn5c4n3)cc2F)CC1 [Example 347, 6-(2-chlorophenyl)-2-{[3,5-difluoro-4-(4-methylpiperazin-1-yl)phenyl]amino}imidazo[1,2-a]pyrimido[5,4-e]pyrimidin-5(6H)-one]"
6,> 100,"O=c1c2cnc(Nc3ccc(C(F)(F)F)cc3)nc2n2ccnc2n1-c1ccccc1Cl [Example 348, 6-(2-chlorophenyl)-2-{[4-(trifluoromethyl)phenyl]amino}imidazo[1,2-a]pyrimido[5,4-e]pyrimidin-5(6H)-one]"
7,10 to 100,"O=c1c2cnc(Nc3ccc(N4CCC[C@H]4C(F)(F)F)cc3)nc2n2ccnc2n1-c1ccccc1Cl [Example 352, 6-(2-chlorophenyl)-2-({4-[(2S)-2-(trifluoromethyl)pyrrolidin-1-yl]phenyl}amino)imidazo[1,2-a]pyrimido[5,4-e]pyrimidin-5(6H)-one]"
8,> 100,"CN1CCN(c2c(Cl)cc(Nc3ncc4c(=O)n(-c5ccccc5Cl)c5nccn5c4n3)cc2C(F)(F)F)CC1 [Example 353, 2-{[3-chloro-4-(4-methylpiperazin-1-yl)-5-(trifluoromethyl)phenyl]amino}-6-(2-chlorophenyl)imidazo[1,2-a]pyrimido[5,4-e]pyrimidin-5(6H)-one]"
9,< 10,"CN1Cc2cc(Nc3ncc4c(=S)n(-c5ccccc5Cl)c5nccn5c4n3)ccc2C2(CC2)C1 [Example 355, 6-(2-chlorophenyl)-2-[(2′-methyl-2′,3′-dihydro-1′H-spiro[cyclopropane-1,4′-isoquinolin]-7′-yl)amino]imidazo[1,2-a]pyrimido[5,4-e]pyrimidine-5(6H)-thione]"
10,10 to 100,"CC1(C)CN(Cc2ccccc2C#N)Cc2cc(Nc3ncc4c(=O)n(-c5ccccc5Cl)c5nccn5c4n3)ccc21 [Example 356, 2-{[7-{[6-(2-chlorophenyl)-5-oxo-5,6-dihydroimidazo[1,2-a]pyrimido[5,4-e]pyrimidin-2-yl]amino}-4,4-dimethyl-3,4-dihydroisoquinolin-2(1H)-yl]methyl}benzonitrile]"
